Test results from patent publication US20240391936A1, “TETRAHYDROTHIENO PYRIDINE DERIVATIVES AS DDRS INHIBITORS” (CHIESI FARMACEUTICI S.P.A., priority 2021, published 2024).

Assays:
DDR1 [1] = biological target: T1, DDR1 (Homo sapiens, UniProt Q08345); assay: DDR1 binding assay (LanthaScreen Europium Kinase Binding assay); design: purchased Carna Biosciences; conditions: binding assay, 5 nM DDR1, 20 nM Kinase Tracer 178; Ki from IC50 by Cheng-Prusoff; read-out: Ki DDR1
Outline: (§1)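 Compounds incubated 1 h at room temperature with 5 nM kinase, Kinase Tracer 178 (20 nM for DDR1, 10 nM for DDR2) and 2 nM Eu-anti-GST antibody in pH 7.5 HEPES/MgCl2/EGTA/BRIJ35 buffer. TR-FRET 665/615 nm ratio read after 340 nm excitation; IC50 from 4-parameter fit, converted to Ki by Cheng-Prusoff.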

DDR1 [2] = biological target: T1, DDR1; assay: DDR1 cell based assay (PathHunter U2OS DDR1 assay); design: host or cells: U2OS-DDR1 (PathHunter); conditions: U2OS-DDR1 cells, bovine Type II Collagen 20 μg/ml
Outline: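 U2OS-DDR1 PathHunter cells preincubated 30 min with compound, then stimulated overnight at 37 °C with 20 μg/ml bovine type II collagen. Luminescent complementation signal read after 1 h detection at room temperature; normalized to vehicle (0%) and collagen-only (100%) controls, IC50 from variable-slope sigmoidal fit.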

DDR2 [3] = biological target: T2, DDR2 (Homo sapiens, UniProt Q16832); assay: DDR2 cell based assay (phospho-ELISA in HEK293T-DDR2 recombinant cells); design: expressed in transfected cells; host or cells: HEK293T-DDR2 recombinant cells; conditions: bovine Type II Collagen 50 μg/ml
T2 sequence (Q16832 22-855): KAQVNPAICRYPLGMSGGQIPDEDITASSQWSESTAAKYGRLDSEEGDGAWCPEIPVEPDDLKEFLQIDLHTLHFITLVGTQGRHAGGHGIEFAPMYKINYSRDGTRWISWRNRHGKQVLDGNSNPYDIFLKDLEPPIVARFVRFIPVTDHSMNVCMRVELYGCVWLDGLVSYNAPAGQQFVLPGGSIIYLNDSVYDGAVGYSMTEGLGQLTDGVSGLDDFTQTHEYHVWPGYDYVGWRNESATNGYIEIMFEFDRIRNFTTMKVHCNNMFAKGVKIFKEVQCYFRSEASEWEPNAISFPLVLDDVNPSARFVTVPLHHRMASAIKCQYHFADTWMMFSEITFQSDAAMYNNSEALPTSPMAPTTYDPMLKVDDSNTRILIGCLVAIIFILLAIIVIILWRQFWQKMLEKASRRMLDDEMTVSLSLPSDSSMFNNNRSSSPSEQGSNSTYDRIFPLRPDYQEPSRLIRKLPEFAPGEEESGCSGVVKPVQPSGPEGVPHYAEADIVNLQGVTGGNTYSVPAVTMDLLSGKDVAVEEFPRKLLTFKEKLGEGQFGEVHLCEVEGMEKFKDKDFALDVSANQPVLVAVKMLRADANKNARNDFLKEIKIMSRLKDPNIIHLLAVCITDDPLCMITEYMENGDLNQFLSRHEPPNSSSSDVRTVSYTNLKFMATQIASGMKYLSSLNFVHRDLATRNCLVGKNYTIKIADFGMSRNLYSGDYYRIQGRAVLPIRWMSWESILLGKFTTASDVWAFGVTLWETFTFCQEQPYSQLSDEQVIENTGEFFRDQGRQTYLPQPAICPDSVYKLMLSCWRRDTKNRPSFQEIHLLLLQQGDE
Experimental: The inhibition of DDR2 phosphorylation by compounds was evaluated in HEK293T-DDR2 recombinant cells by phospho-ELISA assay. Briefly, HEK293T-DDR2 cells were seeded in poly-D-lysine-coated 24-well plates at a density of 250.000 cells/well and incubated for 1.5 hours at 37° C. and 5% CO2 in DMEM+10% FBS. After that, the medium was changed to serum-free DMEM and cells were incubated for 3 hours. Then. test compounds were added at different concentrations 30 minutes before stimulation with bovine Type II Collagen at 50 μg/ml for further 3 hours. For DDR2 phospho-ELISA assay (DuoSet IC Human Phospho-DDR2; R&D Systems), protein extracts were obtained by adding 60 μl/well of lysis buffer prepared according to the manufacturer's instructions. Protein concentration in the samples was determined by BCA assay and the levels of phospho-DDR2 were determined following R&D Systems indications. Raw data were normalized to maximal inhibition control (0% for normalization) and positive control (100% for normalization; cells treated with […] collagen II) and IC50 parameters were calculated in GraphPad Prism 8.0 software, using sigmoidal dose-response curve fitting with variable slope.

DDR2 [4] = biological target: T2, DDR2; assay: DDR2 binding assay (LanthaScreen Europium Kinase Binding assay); design: purchased Life Technologies; conditions: binding assay, 5 nM DDR2, 10 nM Kinase Tracer 178; Ki from IC50 by Cheng-Prusoff; read-out: Ki DDR2
Outline: as §1

T1 sequence (Q08345 19-913): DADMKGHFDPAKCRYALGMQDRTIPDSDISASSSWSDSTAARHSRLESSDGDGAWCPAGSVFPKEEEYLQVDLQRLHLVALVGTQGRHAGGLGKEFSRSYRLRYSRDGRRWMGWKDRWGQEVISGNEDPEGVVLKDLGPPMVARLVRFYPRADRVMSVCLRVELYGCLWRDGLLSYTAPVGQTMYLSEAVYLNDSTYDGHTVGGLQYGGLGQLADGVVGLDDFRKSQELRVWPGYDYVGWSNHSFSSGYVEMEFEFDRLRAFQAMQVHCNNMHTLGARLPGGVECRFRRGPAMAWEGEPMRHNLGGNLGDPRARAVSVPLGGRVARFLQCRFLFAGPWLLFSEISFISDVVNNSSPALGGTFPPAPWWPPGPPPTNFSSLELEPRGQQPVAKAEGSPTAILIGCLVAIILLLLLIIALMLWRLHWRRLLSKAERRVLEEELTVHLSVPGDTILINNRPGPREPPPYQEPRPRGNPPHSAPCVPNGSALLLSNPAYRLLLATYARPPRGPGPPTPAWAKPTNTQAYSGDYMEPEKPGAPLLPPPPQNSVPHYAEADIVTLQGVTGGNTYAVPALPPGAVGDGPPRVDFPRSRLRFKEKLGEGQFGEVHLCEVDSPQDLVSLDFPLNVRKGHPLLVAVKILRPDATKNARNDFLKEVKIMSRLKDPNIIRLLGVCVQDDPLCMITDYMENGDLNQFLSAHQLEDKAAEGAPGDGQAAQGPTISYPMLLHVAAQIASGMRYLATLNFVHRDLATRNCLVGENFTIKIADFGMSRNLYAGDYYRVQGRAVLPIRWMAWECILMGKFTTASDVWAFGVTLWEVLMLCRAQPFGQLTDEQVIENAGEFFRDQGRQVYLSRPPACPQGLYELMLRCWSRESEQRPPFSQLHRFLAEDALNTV

SMILES: O=C(Nc1cccc(OC(F)(F)F)c1)c1csc2c1CCN(Cc1cnc3[nH]ccc3c1)C2 [Example 72, 6-((1H-pyrrolo[2,3-b]pyridin-5-yl)methyl)-N-(3-(trifluoromethoxy)phenyl)-4,5,6,7-tetrahydrothieno[2,3-c]pyridine-3-carboxamide]
- Ki (DDR1 [1]): < 25 nM
- IC50 (DDR1 [2]): < 25 nM
- IC50 (DDR2 [3]): < 25 nM
- Ki (DDR2 [4]): < 25 nM

SMILES: O=C(Nc1cccc(C(F)(F)F)c1)c1csc2c1CCN(Cc1cnc3[nH]ncc3c1)C2 [Example 85, 6-((1H-pyrazolo[3,4-b]pyridin-5-yl)methyl)-N-(3-(trifluoromethyl)phenyl)-4,5,6,7-tetrahydrothieno[2,3-c]pyridine-3-carboxamide]
- Ki (DDR1 [1]): < 25 nM
- IC50 (DDR1 [2]): < 25 nM
- IC50 (DDR2 [3]): < 25 nM
- Ki (DDR2 [4]): < 25 nM

SMILES: O=C(Nc1cc(F)cc(C(F)(F)F)c1)c1csc2c1CCN(Cc1cnc3[nH]ncc3c1)C2 [Example 67, 6-((1H-pyrazolo[3,4-b]pyridin-5-yl)methyl)-N-(3-fluoro-5-(trifluoromethyl)phenyl)-4,5,6,7-tetrahydrothieno[2,3-c]pyridine-3-carboxamide]
- Ki (DDR1 [1]): < 25 nM
- IC50 (DDR1 [2]): < 25 nM
- IC50 (DDR2 [3]): 25 to 50 nM
- Ki (DDR2 [4]): < 25 nM

SMILES: CC1c2scc(C(=O)Nc3cccc(C(F)(F)F)c3)c2CCN1Cc1cnc2cnccn12 (stereo not shown) [Example 103, 6-(imidazo[1,2-a]pyrazin-3-ylmethyl)-7-methyl-N-(3-(trifluoromethyl)phenyl)-4,5,6,7-tetrahydrothieno[2,3-c]pyridine-3-carboxamide]
- Ki (DDR1 [1]): < 25 nM
- IC50 (DDR1 [2]): < 25 nM
- IC50 (DDR2 [3]): 25 to 50 nM
- Ki (DDR2 [4]): < 25 nM

SMILES: Cc1n[nH]c2ncc(CN3CCc4c(C(=O)Nc5cncc(C(F)(F)F)c5)csc4C3)cc12 [Example 150, 6-((3-methyl-1H-pyrazolo[3,4-b]pyridin-5-yl)methyl)-N-(5-(trifluoromethyl)pyridin-3-yl)-4,5,6,7-tetrahydrothieno[2,3-c]pyridine-3-carboxamide]
- Ki (DDR1 [1]): < 25 nM
- IC50 (DDR1 [2]): < 25 nM
- IC50 (DDR2 [3]): < 25 nM
- Ki (DDR2 [4]): < 25 nM

SMILES: COc1ccc(NC(=O)c2csc3c2CCN(Cc2cnc4[nH]ccc4c2)C3)cc1C(F)(F)F [Example 71, 6-((1H-pyrrolo[2,3-b]pyridin-5-yl)methyl)-N-(4-methoxy-3-(trifluoromethyl)phenyl)-4,5,6,7-tetrahydrothieno[2,3-c]pyridine-3-carboxamide]
- Ki (DDR1 [1]): < 25 nM
- IC50 (DDR1 [2]): < 25 nM
- IC50 (DDR2 [3]): < 25 nM
- Ki (DDR2 [4]): < 25 nM

SMILES: O=C(Nc1cncc(C(F)(F)F)c1)c1csc2c1CCN(Cc1cnc3ccnn3c1)C2 [Example 152, 6-(pyrazolo[1,5-a]pyrimidin-6-ylmethyl)-N-(5-(trifluoromethyl)pyridin-3-yl)-4,5,6,7-tetrahydrothieno[2,3-c]pyridine-3-carboxamide]
- Ki (DDR1 [1]): < 25 nM
- IC50 (DDR1 [2]): < 25 nM
- IC50 (DDR2 [3]): < 25 nM
- Ki (DDR2 [4]): < 25 nM

SMILES: O=C(Nc1cncc(C(F)(F)F)c1)c1csc2c1CCN(C(=O)c1cnn3ccncc13)C2 [Example 108, 6-(pyrazolo[1,5-a]pyrazine-3-carbonyl)-N-(5-(trifluoromethyl)pyridin-3-yl)-4,5,6,7-tetrahydrothieno[2,3-c]pyridine-3-carboxamide]
- Ki (DDR1 [1]): < 25 nM
- IC50 (DDR1 [2]): < 25 nM
- IC50 (DDR2 [3]): 25 to 50 nM
- Ki (DDR2 [4]): < 25 nM

SMILES: CC1(C)c2scc(C(=O)Nc3cccc(C(F)(F)F)c3)c2CCN1C(=O)c1cnc2ccccn12 [Example 102, 6-(imidazo[1,2-a]pyridine-3-carbonyl)-7,7-dimethyl-N-(3-(trifluoromethyl)phenyl)-4,5,6,7-tetrahydrothieno[2,3-c]pyridine-3-carboxamide]
- Ki (DDR1 [1]): < 25 nM
- IC50 (DDR1 [2]): < 25 nM
- IC50 (DDR2 [3]): 25 to 50 nM
- Ki (DDR2 [4]): < 25 nM

SMILES: O=C(Nc1ccc(CN2CCOCC2)c(C(F)(F)F)c1)c1csc2c1CCN(C(=O)c1cnc3ccccn13)C2 [Example 23, 6-(imidazo[1,2-a]pyridine-3-carbonyl)-N-(4-(morpholinomethyl)-3-(trifluoromethyl)phenyl)-4,5,6,7-tetrahydrothieno[2,3-c]pyridine-3-carboxamide]
- Ki (DDR1 [1]): < 25 nM
- IC50 (DDR1 [2]): < 25 nM
- IC50 (DDR2 [3]): 25 to 50 nM
- Ki (DDR2 [4]): < 25 nM
